Here are results for 101 compounds from PubChem BioAssay AID504542 (Sanford-Burnham Center for Chemical Genomics, 2011).

Activity calls are given as the source filed them. How the calls were made is not given here. A value given as a limit tells only on which side of the number the result lay.

The subject of this assay is S. cerevisiae TIM10 counterscreen strain, luminescence. Description: TIM10 counterscreen strain luminescent signal reducers – S. cerevisiae, uHTS hits, counter-screen for tim10-1 inhibitor project, dose response (AID 504542).

Regarding `O=c1c2ccccc2[se]n1-c1ccccc1`, the half-maximal inhibitory concentration (IC50) was 0.58 µM.

With `O=C(NC(=S)NNC(=O)c1ccccc1[N+](=O)[O-])c1ccc(Br)cc1`, the half-inhibitory concentration (IC50) is 6.64 µM.

Take `CC(=O)N1CCN(c2cc(N3CCc4ccccc4C3)c(F)cc2[N+](=O)[O-])CC1`: the half-maximal inhibitory concentration (IC50) was 19.6 µM.

Take `CCOc1ccccc1N1C(=O)CC(Sc2n[nH]c(-c3ccccc3)n2)C1=O` (stereo unspecified): the IC50 was 2.27 µM.

For the compound `Cn1c(Cl)cnc1C1CC(=O)c2cc(Cl)ccc2O1` (stereo unspecified), the IC50 is 1.98 µM.

Consider `Cc1ccc(NC2=C/C(=N\S(=O)(=O)c3cccs3)c3ccccc3C2=O)c(C)c1`, for which the half-inhibitory concentration (IC50) was 3.94 µM.

Take `COc1ccc(Cl)cc1NC(=S)NCCc1ccc(F)cc1`: the 50% inhibitory concentration (IC50) is 11.3 µM.

As for `O=C(N/N=C/c1ccc[nH]1)c1cc(-c2ccc(Cl)cc2)nc2ccccc12`, the IC50 is 4.98 µM.

Take `COc1cc(N=c2ssnc2Cl)c(OC)cc1Cl`: the IC50 is 3.15 µM.

Take `Cn1c(/C=C/c2ccc([N+](=O)[O-])o2)nc2ccccc2c1=O`: the IC50 is 4.94 µM.

On to `CC(C)C(c1nnnn1C1CCCC1)N1CCCc2ccccc21` (stereo unspecified), for which the IC50 is 5.94 µM.

For `Clc1ccccc1OCc1nnc(-c2ccccc2Br)o1`, the IC50 was 16.6 µM.

On to `Fc1ccccc1CNC(=S)Nc1cccc(C(F)(F)F)c1`, for which the IC50 is 8.28 µM.

Consider `Cc1ccc(NC(=O)c2ccc(Cl)c(N3C(=O)C=CC3=O)c2)cc1`, for which the IC50 was 4.36 µM.

Consider `O=C(Nc1cccnc1)c1cn(-c2ccccc2)nc1-c1cccs1`, for which the IC50 was 8.73 µM.

For the compound `O=C(Nc1cccc(N2C(=O)C=CC2=O)c1)c1cccs1`, the 50% inhibitory concentration (IC50) was 2.61 µM.

For `Cc1cc(C)c(CSc2ncc(-c3ccc([N+](=O)[O-])cc3)[nH]2)c(C)c1`, the half-maximal inhibitory concentration (IC50) is 10.1 µM.

As to `COc1ccc(Br)cc1[C@H]1[C@@H]2C=CCC[C@@]2(C)C(=O)N1Cc1ccccc1`, the IC50 was 6.12 µM.

As to `CCOC(=O)/C=C/C(=O)OCC(=O)Nc1ccc([N+](=O)[O-])cc1`, the 50% inhibitory concentration (IC50) is 3.98 µM.

As for `Cc1ccc(NC(=O)c2cc(S(=O)(=O)NCCC3=CCCCC3)ccc2F)cc1`, the half-maximal inhibitory concentration (IC50) is 12.3 µM.

For the compound `C=CC(=O)Oc1ccc(N2Cc3ccccc3C2=O)cc1`, the 50% inhibitory concentration (IC50) is 2.89 µM.

Regarding `CCCCc1ccc(NC(=S)Nc2ccc(Nc3ccc(OC)cc3)cc2)cc1`, the IC50 is 12.4 µM.

As for `O=C(OCn1ncc(Br)c(Br)c1=O)c1ccc(F)cc1`, the concentration for half-maximal inhibition (IC50) is 1.15 µM.

With `O=C1C2C3C=CC(CO)(O3)C2C(=O)N1c1ccccc1-c1ccccc1` (stereo unspecified), the IC50 is 1.27 µM.

As to `COc1ccc(-c2sc3cc4c(cc3c2C#CC2(N)CCCCC2)OCO4)cc1`, the IC50 was 8.21 µM.

In the case of `COc1ccc(-c2nncnn2)cc1`, the 50% inhibitory concentration (IC50) is 3.43 µM.

For `Cc1cc(C)cc(N2C(=O)CC(Sc3nnnn3-c3ccccc3)C2=O)c1` (stereo unspecified), the 50% inhibitory concentration (IC50) was 0.69 µM.

In the case of `Cc1ccc(CNC(=O)c2ccc(Cn3nc(C)c(Cl)c3C)o2)cc1`, the IC50 is 10.1 µM.

Consider `N#C/C(=N/Nc1ccc(OC(F)(F)F)cc1)C(N)=S`, for which the IC50 was 1.22 µM.

Take `COC(=O)c1c(N2C(=O)CC(Sc3ccccc3C(=O)O)C2=O)sc2c1CCCC2` (stereo unspecified): the IC50 is 1.49 µM.

As to `Fc1ccc(CNC(=S)Nc2cccc(C(F)(F)F)c2)cc1`, the IC50 was 8.8 µM.

With `N/C(Cc1ccc(Cl)cc1)=N\OC(=O)c1ccc2ccccc2c1`, the IC50 is 0.26 µM.

As for `NC(=NCCCCCCN=C(N)/N=C(\N)Nc1ccc(Cl)cc1)/N=C(\N)Nc1ccc(Cl)cc1`, the IC50 was > 100 µM (inactive).

For the compound `Cc1cccc(NC(=S)N/N=C2/CCCCc3ccccc32)c1`, the IC50 is 2.28 µM.

As for `N/C(Cc1ccc(Cl)cc1Cl)=N\OC(=O)Cc1ccc(Cl)cc1`, the 50% inhibitory concentration (IC50) is 0.74 µM.

For the compound `COc1cc(OC)c(C(=O)O/N=C(\N)c2ccc(C)cc2)cc1OC`, the IC50 is 5.99 µM.

As to `Cc1ccccc1OCC(=O)Nc1ccc(S(=O)(=O)N2CCCC2)cc1`, the 50% inhibitory concentration (IC50) was 5.36 µM.

Consider `O=C(NC(=S)Nc1ccccc1N1CCCC1)c1ccc([N+](=O)[O-])cc1`, for which the IC50 is 8.53 µM.

Regarding `O=C1CS(=O)(=O)N(Cc2cccc(F)c2)c2ccc(Br)cc21`, the IC50 is 4.69 µM.

`COc1ccc(-c2[nH]ncc2N=Nc2ccccc2)cc1`: the IC50 is 5.88 µM.

As to `C/C(=N\NC(=S)NCc1ccccc1)c1ccc(Cl)s1`, the IC50 is 11.6 µM.

For `Cc1ccc(S(=O)(=O)c2nc(S(C)(=O)=O)sc2N2CCCCC2C)cc1` (stereo unspecified), the 50% inhibitory concentration (IC50) is 2.35 µM.

On to `COc1cc(/C=C/c2ccc3cccc(O)c3n2)c(Br)cc1O`, for which the IC50 was 9.2 µM.

On to `CCOC(=O)c1c(OCC)[nH]c2c1cc(O)c1ccccc12`, for which the 50% inhibitory concentration (IC50) was 8.27 µM.

On to `CC(C)NC(=S)N/N=C1\CCCCc2ccccc21`, for which the concentration for half-maximal inhibition (IC50) is 3.66 µM.

For `COc1ccc(Cl)cc1NC(=O)CN(C)C(=O)C12CC3CC(CC(Cl)(C3)C1)C2`, the 50% inhibitory concentration (IC50) is 12 µM.

For the compound `CN=C(Nc1cc(Cl)ccc1Cl)SC1CC(=O)N(c2ccc(C(=O)OC)cc2)C1=O` (stereo unspecified), the IC50 was 6.33 µM.

Take `COc1ccc(/C=C/C(=O)c2ccccc2)cc1Cn1nnc2ccccc21`: the IC50 was 3.86 µM.

With `Cc1ccc(F)c([C@H]2[C@@H]3C=CCC[C@@]3(C)C(=O)N2Cc2ccccc2)c1`, the 50% inhibitory concentration (IC50) is 7.6 µM.

In the case of `CCCn1c(CC)nc([N+](=O)[O-])c1S(=O)(=O)c1ccccc1`, the IC50 is 2.72 µM.

On to `CC1=C/C(=N\OS(=O)(=O)c2ccccc2)C(C)=CC1=O`, for which the 50% inhibitory concentration (IC50) was less than 0.2 µM.

As to `CC(=O)c1ccc(NC(=S)NC(C)c2ccc(Cl)cc2Cl)cc1` (stereo unspecified), the IC50 was 9.11 µM.

As to `COc1ccccc1N1C(=O)CC(Sc2n[nH]c(-c3cccc(C)c3)n2)C1=O` (stereo unspecified), the IC50 was 3.62 µM.

With `Cc1ccc(/C(N)=N/OC(=O)C(C)c2ccc([N+](=O)[O-])cc2)cc1` (stereo unspecified), the half-inhibitory concentration (IC50) was 22 µM.

Take `O=C(NNC(=S)Nc1ccc(Cl)cc1)c1ccccc1OC(F)F`: the half-inhibitory concentration (IC50) is 4.44 µM.

On to `COc1ccc(NC2CCN(C3CC(=O)N(c4ccc(F)c(Cl)c4)C3=O)CC2)cc1` (stereo unspecified), for which the IC50 was 2.91 µM.

Regarding `CN(C)CCCN(C(=O)c1cc2cc([N+](=O)[O-])ccc2s1)c1nc2cc3c(cc2s1)OCCO3`, the half-maximal inhibitory concentration (IC50) was 10.8 µM.

Turning to `COc1ccc(C(=O)Nc2ccc(-n3nncc3C(C)(C)C)cc2)cc1`, the IC50 was 6.59 µM.

With `COc1ccc(C(=O)O/N=C(\N)c2ccc(Br)cc2)cc1`, the IC50 is 7.29 µM.

As for `N/C(=N\OC(=O)c1ccc(Cl)cc1)c1ccc(Cl)cc1`, the IC50 is > 100 µM (inactive).

Consider `CCOC(=O)c1ccc(NC(=O)CC2OCCN(CC)C2=O)cc1` (stereo unspecified), for which the 50% inhibitory concentration (IC50) was 1.28 µM.

As for `CC1(CC(=O)N/N=C/c2ccc(OCc3ccc(Cl)cc3Cl)cc2)OCCCO1`, the IC50 is 2.94 µM.

On to `COc1ccc(-n2cc(-c3ccccc3)c3c(=S)nc[nH]c32)cc1`, for which the IC50 is > 100 µM (inactive).

Consider `O=C(c1ccc2c3n(nc2c1)-c1ccccc1CO3)N1CCCCC1`, for which the IC50 was 8.99 µM.

As for `O=[N+]([O-])c1ccccc1N/N=C/c1c[nH]c2ccccc12`, the concentration for half-maximal inhibition (IC50) is 5.11 µM.

Regarding `CCOC(=O)c1c(CSc2ccc(C)cc2)n(C)c2cc(Br)c(O)c(CN(C)C)c12`, the IC50 was 12.8 µM.

With `Cc1nonc1C1CCCN1C(=O)c1cc(COc2cccc(C(F)(F)F)c2)on1` (stereo unspecified), the half-inhibitory concentration (IC50) was 9.73 µM.

In the case of `CCSc1nc2ccccc2n1C(=O)/C=C\c1ccc(OC)c(OC)c1`, the IC50 was 7.72 µM.

In the case of `O=S(=O)(CCN(CCS(=O)(=O)C(F)(F)F)CC1CCCO1)C(F)(F)F` (stereo unspecified), the IC50 was 5.4 µM.

As for `N=C(N)c1ccc(/C=C/c2ccc(C(=N)N)cc2O)cc1`, the IC50 is 4.36 µM.

Regarding `CC(C)Nc1nnc(Sc2ccc(Cl)cc2[N+](=O)[O-])s1`, the IC50 was 2.28 µM.

`N/C(=N\OC(=O)CCCc1ccccc1)c1ccccc1Cl`: the IC50 was 7.22 µM.

Take `CCCCNC(=S)N=Nc1c(O)[nH]c2ccccc12`: the IC50 is 3.19 µM.

For the compound `Nc1ccccc1C(=O)/C=C/c1ccc2c(c1)OCO2`, the half-maximal inhibitory concentration (IC50) was 5.88 µM.

In the case of `CNC(=O)c1nnsc1S(=O)(=O)c1ccc(Cl)cc1`, the half-inhibitory concentration (IC50) is 12.9 µM.

`CCOC(=O)/C=C/C(=O)Nc1cccc([N+](=O)[O-])c1`: the half-maximal inhibitory concentration (IC50) is 1.9 µM.

On to `O=C1CC(Sc2nnnn2-c2ccccc2)C(=O)N1c1cccc(Cl)c1` (stereo unspecified), for which the half-inhibitory concentration (IC50) was 1.72 µM.

For `O=C(/C=C/c1ccc2c(c1)OCCCO2)c1ccccc1O`, the half-inhibitory concentration (IC50) was 4.68 µM.

Consider `CCCCNC(=S)Nc1ccc(C(F)(F)F)cc1`, for which the IC50 was 9.88 µM.

For `CCCCCCCCCCOC(=O)Cn1c(COc2ccccc2OC)[n+](C)c2ccccc21`, the IC50 was 8.06 µM.

For `CC(C)(C)OC(=O)N[C@@H](Cc1ccccc1)c1nnc(S(=O)(=O)Cc2cccc(F)c2)o1`, the IC50 was 1.19 µM.

In the case of `N/C(=N\OC(=O)c1ccc(F)cc1)c1ccc(Br)cc1`, the IC50 is > 100 µM (inactive).

`NNc1nc(-c2ccccc2)c2cc(Br)ccc2n1`: the IC50 is 15.9 µM.

Regarding `COc1ccc2cc3cc(C(=O)NCCN4CCc5ccccc5C4)oc3nc2c1`, the 50% inhibitory concentration (IC50) was less than 0.2 µM.

As to `CCCOc1ccccc1NC(=O)/C=C/C(N)=O`, the IC50 is 0.87 µM.

`CCCOc1ccc(CN(CCC#N)C(=S)NC(=O)c2ccccc2)cc1`: the IC50 was 10.2 µM.

`S=C(NCCCc1ccccc1)Nc1ccc(Cl)cc1`: the half-inhibitory concentration (IC50) was 3.88 µM.

Take `CC(C)(C)c1ccc(CN2N=Nc3ccccc3S2(=O)=O)cc1`: the IC50 was 2.99 µM.

`COc1ccc(/C(N)=N/OC(=O)c2ccc3c(c2)OCO3)cc1`: the IC50 was 4.94 µM.

With `COc1ccc(C(=O)O/N=C(\N)Cc2ccc(Cl)c(Cl)c2)cc1OC`, the IC50 is 0.8 µM.

In the case of `CCOC(=O)c1ccc(N2C(=O)C=CC2=O)cc1`, the IC50 was 0.41 µM.

Turning to `COc1ccc(C(=O)O/N=C(\N)c2ccc(Cl)cc2)cc1`, the 50% inhibitory concentration (IC50) was 4.07 µM.

In the case of `Fc1c(F)c(C(F)(F)F)c(F)c(F)c1N/N=C\c1cccs1`, the IC50 was 4 µM.

As for `Cc1cc([N+](=O)[O-])ccc1-c1ccc(C2Nc3ccccc3C(=O)N2O)o1` (stereo unspecified), the half-inhibitory concentration (IC50) was 9.76 µM.

In the case of `CCOC(=O)c1cc(-c2cccs2)nc2c1c(C)nn2-c1ccccn1`, the IC50 is 8.92 µM.

Consider `Cn1c(NCCCO)nc2c(c1=O)C1(CCCCC1)Cc1ccccc1-2`, for which the IC50 was 6.86 µM.

Turning to `CC(C)CN(CC(C)C)C(=S)Nc1ccc(Cl)cc1`, the concentration for half-maximal inhibition (IC50) is 11 µM.

As for `CCOC(=O)c1ccc(N=c2ssnc2Cl)cc1`, the 50% inhibitory concentration (IC50) is 1.87 µM.

`O=C(NNC(=S)Nc1cccc(C(F)(F)F)c1)c1cccc(Cl)c1`: the IC50 was 9.48 µM.

In the case of `Cc1cccc(NC(=O)c2ccc([N+](=O)[O-])s2)n1`, the IC50 was 1.39 µM.

In the case of `COc1ccc(C(=O)O/N=C(\N)c2ccccc2Cl)cc1OC`, the IC50 is 9.27 µM.
